Measured values taken from publication PMC6904773, “Structural and functional characterization of buffalo oviduct-specific glycoprotein (OVGP1) expressed during estrous cycle” (Bioscience Reports, 2019).

Legend:
[1] = target: T1, native OVGP1 (buffalo oviduct-specific glycoprotein) (Bubalus bubalis, UniProt A4Z8Y1); experiment: intrinsic Trp fluorescence quenching (ex […] nm); type: binding; conditions: 10 uM protein, 5-15 mM ligand, 25 mM phosphate buffered saline, pH 7.2, 298 K
T1 construct: gene OVN; native, purified to homogeneity from buffalo oviducts; ~55-90 kDa; glycosylated; secreted mature form (precursor 540 aa, signal peptide 21 aa); monomer
T1 sequence (A4Z8Y1 22-540): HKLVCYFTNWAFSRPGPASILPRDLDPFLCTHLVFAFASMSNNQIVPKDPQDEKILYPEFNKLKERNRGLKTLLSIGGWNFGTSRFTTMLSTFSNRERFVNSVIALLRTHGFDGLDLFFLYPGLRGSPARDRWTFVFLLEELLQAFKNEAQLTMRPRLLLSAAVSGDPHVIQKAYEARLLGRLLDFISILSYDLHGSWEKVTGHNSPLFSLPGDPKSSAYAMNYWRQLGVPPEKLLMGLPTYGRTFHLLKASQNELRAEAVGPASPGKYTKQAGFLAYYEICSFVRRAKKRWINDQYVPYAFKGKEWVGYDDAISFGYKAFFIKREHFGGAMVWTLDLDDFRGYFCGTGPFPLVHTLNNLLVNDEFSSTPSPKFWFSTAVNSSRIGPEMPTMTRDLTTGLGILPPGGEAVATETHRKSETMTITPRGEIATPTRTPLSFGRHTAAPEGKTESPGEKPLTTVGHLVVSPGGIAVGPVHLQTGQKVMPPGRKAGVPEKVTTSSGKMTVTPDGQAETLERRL

[2] = target: T2, recombinant OVGP1 (buffalo oviduct-specific glycoprotein) (Bubalus bubalis, UniProt A4Z8Y1); experiment: intrinsic Trp fluorescence quenching (ex […] nm); type: binding; conditions: 10 uM protein, 5-15 mM ligand, 25 mM phosphate buffered saline, pH 7.2, 298 K
T2 construct: gene OVN; recombinant from Escherichia coli, ~58 kDa
T2 sequence (A4Z8Y1 22-540): T1 sequence (A4Z8Y1 22-540)

SMILES	intrinsic Trp fluorescence quenching (ex 280 nm) [1]	intrinsic Trp fluorescence quenching (ex 280 nm) [2]
CC(=O)N[C@H]1C(O)O[C@H](CO)[C@H](O)[C@@H]1O (stereo partly drawn) [GalNAc]	monosaccharides i.e. GlcNAc, GalNAc and mannose complexes of both native and recombinant OVGP1	monosaccharides i.e. GlcNAc, GalNAc and mannose complexes of both native and recombinant OVGP1
CC(=O)N[C@H]1C(O)O[C@H](CO)[C@@H](O)[C@@H]1O (stereo partly drawn) [GlcNAc]	fluorescence intensity of both native and recombinant OVGP1 decreased with increasing concentrations of ligands	fluorescence intensity of both native and recombinant OVGP1 decreased with increasing concentrations of ligands
OC[C@H]1OC(O)[C@@H](O)[C@@H](O)[C@@H]1O (stereo partly drawn) [mannose]	monosaccharides i.e. GlcNAc, GalNAc and mannose complexes of both native and recombinant OVGP1	monosaccharides i.e. GlcNAc, GalNAc and mannose complexes of both native and recombinant OVGP1
